Assay results published in US20240051939A1, “BENZOPYRAZOLE INHIBITORS OF SARM1” (Disarm Therapeutics, Inc., priority 2020, published 2024).

Molecular target: SARM1 (Homo sapiens (Human), UniProt Q6SZW1)
Experiment: ARM-SAM-TIR SARM1 IC50 assay (NADase activity, NAD+ cleavage)
Type: biochemical
Conditions: ARM-SAM-TIR lysate 5 μg/mL, 2 h pre-incubation, 5 μM NAD+, RapidFire MS readout
Procedure: This Example describes an assay of ARM-SAM-TIR NADase activity and use of this assay to measure the efficacy of compounds of Formula I to block SARM1 mediated NAD+ cleavage. This assay was optimized in such a way as to characterize the efficacy of the compounds in Formula I to inhibit SARM1 activity and to calculate an IC50 value for each compound. This assay makes use of full length SARM1, which encompasses the ARM, SAM and TIR domains.
NRK1-HEK293T cells were seeded onto 150 cm^2 plates at 20×10^6 cells per plate. The next day, the cells were transfected with 15 μg ARM-SAM-TIR expression plasmid, SEQ ID NO: 1.
The cultures were supplemented with 1 mM NR at time of transfection to minimize toxicity from ARM-SAM-TIR overexpression. […] Protein concentration was determined by the Bicinchoninic (BCA) method and used to normalize lysate concentrations.
The enzymatic assay was performed in a 384-well polypropylene plate in Dulbecco's PBS buffer in a final assay volume of 20 μL. […] The NAD+ and ADPR concentrations were analyzed by a RapidFire High Throughput Mass Spectrometry System (Agilent Technologies, Santa Clara, CA) using an API4000 triple quadrupole mass spectrometer (AB Sciex Framingham, MA).

Chain of SARM1 (Q6SZW1 other isoform, or with tags, fused parts or gaps): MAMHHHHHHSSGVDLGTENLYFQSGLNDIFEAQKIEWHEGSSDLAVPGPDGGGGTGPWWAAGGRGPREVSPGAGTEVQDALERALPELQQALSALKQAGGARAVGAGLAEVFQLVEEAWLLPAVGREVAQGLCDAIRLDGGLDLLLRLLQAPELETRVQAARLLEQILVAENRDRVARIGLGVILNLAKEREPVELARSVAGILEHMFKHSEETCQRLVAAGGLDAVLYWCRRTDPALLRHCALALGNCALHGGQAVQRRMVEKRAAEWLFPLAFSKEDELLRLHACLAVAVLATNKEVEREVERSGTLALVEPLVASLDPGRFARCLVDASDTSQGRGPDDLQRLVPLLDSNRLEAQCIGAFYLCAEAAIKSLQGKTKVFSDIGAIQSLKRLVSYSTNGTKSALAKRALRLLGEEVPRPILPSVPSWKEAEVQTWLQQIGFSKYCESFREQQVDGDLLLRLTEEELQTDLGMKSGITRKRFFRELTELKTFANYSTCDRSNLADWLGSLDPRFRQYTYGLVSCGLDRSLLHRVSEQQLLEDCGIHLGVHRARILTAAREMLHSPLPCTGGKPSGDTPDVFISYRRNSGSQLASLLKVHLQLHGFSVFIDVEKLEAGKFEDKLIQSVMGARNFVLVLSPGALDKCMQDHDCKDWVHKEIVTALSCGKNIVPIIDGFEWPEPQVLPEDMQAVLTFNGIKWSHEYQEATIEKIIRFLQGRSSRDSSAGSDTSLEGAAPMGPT

## Clc1ccc(CCc2n[nH]c3cc(-c4ccncc4)ccc23)cc1 [Compound I-1]
  IC50: 101 to 500 nM

## Clc1ccc(CCc2n[nH]c3cc(-c4ccncc4)ccc23)cn1 [Compound I-2]
  IC50: 101 to 500 nM
